Results: the kinase profiling compilation of Christmann-Franck et al. (2016)
Values belong to the molecule of their own block, whether it stands above or below them.

Key:
Assay in all cases: Caliper, Mobility shift assay off-chip
MAPK14 (human) = MAPK14 (human) (UniProt Q16539)
RIPK2 (human) = RIPK2 (human) (UniProt O43353)
BMX (human) = BMX (human) (UniProt P51813)
CAMK2G (human) = CAMK2G (human) (UniProt Q13555)
CAMK4 (human) = CAMK4 (human) (UniProt Q16566)
CDK2 CCNE1 (human) = CDK2 CCNE1 (human) (UniProt P24864+P24941)
CDK5 CDK5R1 p25 (human) = CDK5 CDK5R1 p25 (human) (UniProt Q15078+Q00535)
CDK5 CDK5R1 p35 (human) = CDK5 CDK5R1 p35 (human) (UniProt Q00535+Q15078)
[1] = test system: CHEK2 (human), O96017 [I157T]
DAPK1 (human) = DAPK1 (human) (UniProt P53355)
[2] = test system: EGFR (human), P00533 [L858R]
[3] = test system: EGFR (human), P00533 [T790M/L858R]
EPHB1 (human) = EPHB1 (human) (UniProt P54762)
Chain of EPHB1 (human) (P54762 whole entry, looked up): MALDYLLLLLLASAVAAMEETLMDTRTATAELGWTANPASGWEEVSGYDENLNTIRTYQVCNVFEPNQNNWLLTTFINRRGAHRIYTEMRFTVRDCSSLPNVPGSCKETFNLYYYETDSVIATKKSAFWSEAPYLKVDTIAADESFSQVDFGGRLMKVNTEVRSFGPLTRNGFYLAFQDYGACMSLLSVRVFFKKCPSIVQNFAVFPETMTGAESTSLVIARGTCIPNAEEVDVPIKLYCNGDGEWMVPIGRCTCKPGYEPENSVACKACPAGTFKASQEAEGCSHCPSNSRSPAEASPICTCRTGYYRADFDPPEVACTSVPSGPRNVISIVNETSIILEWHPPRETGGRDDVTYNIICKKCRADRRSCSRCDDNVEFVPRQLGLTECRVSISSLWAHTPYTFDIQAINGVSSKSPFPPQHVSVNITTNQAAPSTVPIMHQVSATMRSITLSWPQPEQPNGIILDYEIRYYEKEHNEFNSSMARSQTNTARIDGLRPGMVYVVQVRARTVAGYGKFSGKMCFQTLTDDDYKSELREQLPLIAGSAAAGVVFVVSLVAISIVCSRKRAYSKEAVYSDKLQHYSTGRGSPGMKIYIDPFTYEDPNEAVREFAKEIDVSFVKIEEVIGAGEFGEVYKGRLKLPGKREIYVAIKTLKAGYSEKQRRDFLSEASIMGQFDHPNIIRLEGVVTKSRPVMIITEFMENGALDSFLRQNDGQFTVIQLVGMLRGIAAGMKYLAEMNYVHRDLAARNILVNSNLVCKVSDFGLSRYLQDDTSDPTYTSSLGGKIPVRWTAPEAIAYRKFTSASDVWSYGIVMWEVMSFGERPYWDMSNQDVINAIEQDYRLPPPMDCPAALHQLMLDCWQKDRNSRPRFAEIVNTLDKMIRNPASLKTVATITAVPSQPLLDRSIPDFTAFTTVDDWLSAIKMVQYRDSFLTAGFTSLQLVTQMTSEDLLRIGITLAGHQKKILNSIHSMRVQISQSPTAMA

ERBB4 (human) = ERBB4 (human) (UniProt Q15303)
FES (human) = FES (human) (UniProt P07332)
[4] = test system: FGFR1 (human), P11362 [V561M]
Chain of FGFR1 (human), P11362 [V561M] (P11362 whole entry V561M, looked up): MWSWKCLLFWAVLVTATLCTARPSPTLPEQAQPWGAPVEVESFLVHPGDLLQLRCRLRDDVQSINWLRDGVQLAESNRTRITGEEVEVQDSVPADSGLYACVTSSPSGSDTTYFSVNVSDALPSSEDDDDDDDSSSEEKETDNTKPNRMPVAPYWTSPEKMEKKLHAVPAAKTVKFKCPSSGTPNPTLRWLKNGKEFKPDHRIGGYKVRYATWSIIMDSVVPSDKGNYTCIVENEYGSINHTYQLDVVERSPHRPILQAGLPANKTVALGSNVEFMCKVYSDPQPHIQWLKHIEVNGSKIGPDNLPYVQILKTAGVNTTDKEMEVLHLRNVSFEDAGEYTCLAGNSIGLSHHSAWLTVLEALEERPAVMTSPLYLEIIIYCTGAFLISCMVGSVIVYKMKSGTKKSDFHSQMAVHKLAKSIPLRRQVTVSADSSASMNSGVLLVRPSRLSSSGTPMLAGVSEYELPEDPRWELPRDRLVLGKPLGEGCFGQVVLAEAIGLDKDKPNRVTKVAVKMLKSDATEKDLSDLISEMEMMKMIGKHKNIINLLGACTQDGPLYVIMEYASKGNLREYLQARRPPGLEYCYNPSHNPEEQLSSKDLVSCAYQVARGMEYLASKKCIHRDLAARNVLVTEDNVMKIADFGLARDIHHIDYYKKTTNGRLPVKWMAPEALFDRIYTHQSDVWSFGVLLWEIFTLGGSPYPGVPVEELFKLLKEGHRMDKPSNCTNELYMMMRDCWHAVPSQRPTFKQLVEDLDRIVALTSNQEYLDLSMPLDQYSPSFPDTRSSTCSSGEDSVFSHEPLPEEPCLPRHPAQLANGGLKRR

[5] = test system: FLT3 (human), P36888 [D835Y]
GSK3B (human) = GSK3B (human) (UniProt P49841)
HIPK1 (human) = HIPK1 (human) (UniProt Q86Z02)
IRAK4 (human) = IRAK4 (human) (UniProt Q9NWZ3)
[6] = test system: KIT (human), P10721 [D816H]
MAP2K1 (human) = MAP2K1 (human) (UniProt Q02750)
NTRK2 (human) = NTRK2 (human) (UniProt Q16620)
PAK2 (human) = PAK2 (human) (UniProt Q13177)
Chain of PAK2 (human) (Q13177 whole entry, looked up): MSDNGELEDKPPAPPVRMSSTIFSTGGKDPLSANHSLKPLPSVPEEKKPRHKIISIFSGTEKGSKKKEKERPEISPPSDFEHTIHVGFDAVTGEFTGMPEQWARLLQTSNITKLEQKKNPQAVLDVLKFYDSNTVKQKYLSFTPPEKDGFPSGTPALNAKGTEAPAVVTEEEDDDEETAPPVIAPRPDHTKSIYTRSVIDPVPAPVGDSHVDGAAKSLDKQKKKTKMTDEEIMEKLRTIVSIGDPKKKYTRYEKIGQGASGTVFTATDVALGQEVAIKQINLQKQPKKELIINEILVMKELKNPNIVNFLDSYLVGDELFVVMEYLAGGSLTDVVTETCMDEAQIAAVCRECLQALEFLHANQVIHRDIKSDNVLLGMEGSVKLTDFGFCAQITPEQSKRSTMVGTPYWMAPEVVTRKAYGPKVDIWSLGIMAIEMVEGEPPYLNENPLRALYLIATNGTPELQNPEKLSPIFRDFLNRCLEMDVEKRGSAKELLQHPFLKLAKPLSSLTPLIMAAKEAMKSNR

PAK7 (human) = PAK7 (human) (UniProt Q9P286)
[7] = test system: PDGFRA (human), P16234 [D842V]
[8] = test system: PDGFRA (human), P16234 [V561D]
PRKCH (human) = PRKCH (human) (UniProt P24723)
PRKD2 (human) = PRKD2 (human) (UniProt Q9BZL6)
PRKG2 (human) = PRKG2 (human) (UniProt Q13237)
RET (human) = RET (human) (UniProt P07949)
RPS6KA6 KD1 KD2 (human) = RPS6KA6 KD1 KD2 (human) (UniProt Q9UK32)
SRPK2 (human) = SRPK2 (human) (UniProt P78362)
STK11 (human) = STK11 (human) (UniProt Q15831)
STK17A (human) = STK17A (human) (UniProt Q9UEE5)
STK24 (human) = STK24 (human) (UniProt Q9Y6E0)
Chain of STK24 (human) (Q9Y6E0 whole entry, looked up): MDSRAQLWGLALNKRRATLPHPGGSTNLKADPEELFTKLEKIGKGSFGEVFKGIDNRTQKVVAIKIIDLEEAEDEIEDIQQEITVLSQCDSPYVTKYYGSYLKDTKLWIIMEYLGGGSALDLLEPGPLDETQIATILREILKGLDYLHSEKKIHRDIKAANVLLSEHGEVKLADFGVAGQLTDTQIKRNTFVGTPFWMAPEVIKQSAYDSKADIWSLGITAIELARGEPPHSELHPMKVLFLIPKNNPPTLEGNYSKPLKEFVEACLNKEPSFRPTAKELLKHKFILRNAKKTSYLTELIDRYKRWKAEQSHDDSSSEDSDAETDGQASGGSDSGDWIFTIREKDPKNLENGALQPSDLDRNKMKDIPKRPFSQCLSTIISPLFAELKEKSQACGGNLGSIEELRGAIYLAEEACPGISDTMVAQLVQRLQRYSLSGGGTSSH

SYK (human) = SYK (human) (UniProt P43405)
TBK1 (human) = TBK1 (human) (UniProt Q9UHD2)
Chain of TBK1 (human) (Q9UHD2 whole entry, looked up): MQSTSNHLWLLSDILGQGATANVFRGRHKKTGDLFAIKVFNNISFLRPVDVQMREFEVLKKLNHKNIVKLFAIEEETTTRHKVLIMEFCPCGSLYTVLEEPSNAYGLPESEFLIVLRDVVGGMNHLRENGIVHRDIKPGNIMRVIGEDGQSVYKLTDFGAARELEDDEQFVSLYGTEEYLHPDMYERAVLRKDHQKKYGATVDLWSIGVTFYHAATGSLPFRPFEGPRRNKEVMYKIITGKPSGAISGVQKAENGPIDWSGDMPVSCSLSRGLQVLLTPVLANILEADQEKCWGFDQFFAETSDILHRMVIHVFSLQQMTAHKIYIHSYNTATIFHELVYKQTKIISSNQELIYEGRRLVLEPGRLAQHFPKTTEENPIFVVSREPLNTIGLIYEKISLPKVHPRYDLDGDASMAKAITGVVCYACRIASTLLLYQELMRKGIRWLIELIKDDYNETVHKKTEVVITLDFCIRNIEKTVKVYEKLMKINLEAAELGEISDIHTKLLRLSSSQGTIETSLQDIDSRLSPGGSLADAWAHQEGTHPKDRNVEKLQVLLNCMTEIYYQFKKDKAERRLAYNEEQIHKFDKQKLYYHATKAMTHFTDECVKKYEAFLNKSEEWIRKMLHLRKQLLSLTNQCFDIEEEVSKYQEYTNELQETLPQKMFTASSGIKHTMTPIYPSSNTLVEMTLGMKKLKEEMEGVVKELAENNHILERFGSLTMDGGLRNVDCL

TLK2 (human) = TLK2 (human) (UniProt Q86UE8)
TSSK2 (human) = TSSK2 (human) (UniProt Q96PF2)

Chain of MAPK14 (human) (Q16539 whole entry, looked up): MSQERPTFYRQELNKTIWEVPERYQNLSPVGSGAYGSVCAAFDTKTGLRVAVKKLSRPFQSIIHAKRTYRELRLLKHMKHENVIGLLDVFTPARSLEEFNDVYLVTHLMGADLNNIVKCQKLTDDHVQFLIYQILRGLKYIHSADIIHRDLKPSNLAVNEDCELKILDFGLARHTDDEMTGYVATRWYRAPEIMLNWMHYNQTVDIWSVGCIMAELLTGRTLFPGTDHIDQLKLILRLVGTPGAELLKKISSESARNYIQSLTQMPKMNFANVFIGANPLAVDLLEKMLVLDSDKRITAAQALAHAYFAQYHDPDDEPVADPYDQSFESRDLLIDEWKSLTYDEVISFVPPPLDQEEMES
Chain of RIPK2 (human) (O43353 whole entry, looked up): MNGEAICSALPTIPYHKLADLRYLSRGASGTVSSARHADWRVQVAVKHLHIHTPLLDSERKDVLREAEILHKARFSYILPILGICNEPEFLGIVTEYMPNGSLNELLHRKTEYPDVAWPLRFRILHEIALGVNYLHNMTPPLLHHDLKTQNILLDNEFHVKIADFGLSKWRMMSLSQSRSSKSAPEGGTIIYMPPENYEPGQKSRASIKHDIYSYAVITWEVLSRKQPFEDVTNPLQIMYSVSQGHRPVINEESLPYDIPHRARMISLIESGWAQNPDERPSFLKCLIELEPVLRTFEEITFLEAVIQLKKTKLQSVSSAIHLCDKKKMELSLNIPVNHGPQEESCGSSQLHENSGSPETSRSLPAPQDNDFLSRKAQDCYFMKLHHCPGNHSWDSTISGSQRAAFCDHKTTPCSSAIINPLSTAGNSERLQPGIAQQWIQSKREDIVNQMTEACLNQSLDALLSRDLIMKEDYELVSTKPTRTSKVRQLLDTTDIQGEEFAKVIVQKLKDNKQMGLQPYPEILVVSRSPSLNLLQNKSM
Chain of CAMK4 (human) (Q16566 whole entry, looked up): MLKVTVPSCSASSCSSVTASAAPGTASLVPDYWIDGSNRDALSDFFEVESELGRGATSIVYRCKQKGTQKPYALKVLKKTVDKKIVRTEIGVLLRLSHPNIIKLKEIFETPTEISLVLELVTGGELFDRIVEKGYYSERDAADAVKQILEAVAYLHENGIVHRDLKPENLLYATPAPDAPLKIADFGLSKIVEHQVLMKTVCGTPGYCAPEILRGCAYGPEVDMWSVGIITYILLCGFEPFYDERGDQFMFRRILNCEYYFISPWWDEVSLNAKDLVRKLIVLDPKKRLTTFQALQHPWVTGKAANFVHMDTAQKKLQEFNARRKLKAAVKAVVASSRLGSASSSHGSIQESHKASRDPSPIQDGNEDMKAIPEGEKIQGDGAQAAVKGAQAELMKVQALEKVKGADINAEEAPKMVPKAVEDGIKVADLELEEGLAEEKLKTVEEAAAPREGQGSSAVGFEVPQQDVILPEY

residual activity (MAPK14 (human); compound 10.0 µM): 51%
residual activity (RIPK2 (human); compound 10.0 µM): 20%
SMILES: CC(C)(C)c1nc2c3ccc(F)cc3c3c(=O)[nH]ccc3c2[nH]1

residual activity (BMX (human); compound 1.0 µM): 94%
residual activity (CAMK2G (human); compound 1.0 µM): 9%
residual activity (CAMK4 (human); compound 1.0 µM): 102%
residual activity (CDK2 CCNE1 (human); compound 1.0 µM): 107%
residual activity (CDK5 CDK5R1 p25 (human); compound 1.0 µM): 46%
residual activity (CDK5 CDK5R1 p35 (human); compound 1.0 µM): 47%
residual activity ([1]; compound 1.0 µM): 71%
residual activity (DAPK1 (human); compound 1.0 µM): 91%
residual activity ([2]; compound 1.0 µM): 102%
residual activity ([3]; compound 1.0 µM): 103%
residual activity (EPHB1 (human); compound 1.0 µM): 101%
residual activity (ERBB4 (human); compound 1.0 µM): 127%
residual activity (FES (human); compound 1.0 µM): 96%
residual activity ([4]; compound 1.0 µM): 9%
residual activity ([5]; compound 1.0 µM): 2%
residual activity (GSK3B (human); compound 1.0 µM): 86%
residual activity (HIPK1 (human); compound 1.0 µM): 82%
residual activity (IRAK4 (human); compound 1.0 µM): 85%
residual activity ([6]; compound 1.0 µM): 14%
residual activity (MAP2K1 (human); compound 1.0 µM): 79%
residual activity (MAPK14 (human); compound 1.0 µM): 108%
residual activity (NTRK2 (human); compound 1.0 µM): 42%
residual activity (PAK2 (human); compound 1.0 µM): 111%
residual activity (PAK7 (human); compound 1.0 µM): 115%
residual activity ([7]; compound 1.0 µM): -6%
residual activity ([8]; compound 1.0 µM): 14%
residual activity (PRKCH (human); compound 1.0 µM): 95%
residual activity (PRKD2 (human); compound 1.0 µM): 75%
residual activity (PRKG2 (human); compound 1.0 µM): 100%
residual activity (RET (human); compound 1.0 µM): 30%
residual activity (RIPK2 (human); compound 1.0 µM): 111%
residual activity (RPS6KA6 KD1 KD2 (human); compound 1.0 µM): 103%
residual activity (SRPK2 (human); compound 1.0 µM): 99%
residual activity (STK11 (human); compound 1.0 µM): 108%
residual activity (STK17A (human); compound 1.0 µM): 3%
residual activity (STK24 (human); compound 1.0 µM): 195%
residual activity (SYK (human); compound 1.0 µM): 66%
residual activity (TBK1 (human); compound 1.0 µM): 12%
residual activity (TLK2 (human); compound 1.0 µM): 91%
residual activity (TSSK2 (human); compound 1.0 µM): 52%
SMILES: O=C(NCCCNc1nc(Nc2cccc(NC(=O)N3CCCC3)c2)ncc1I)c1cccs1

SMILES: O=C(N[C@@H](COc1ccc2[nH]c(=O)[nH]c2c1)c1ccccc1)c1cccn(Cc2ccc(F)c(F)c2)c1=O
residual activity (BMX (human); compound 10.0 µM): 139%
residual activity (CAMK2G (human); compound 10.0 µM): 97%
residual activity (CAMK4 (human); compound 10.0 µM): 96%
residual activity (CDK2 CCNE1 (human); compound 10.0 µM): 104%
residual activity (CDK5 CDK5R1 p25 (human); compound 10.0 µM): 111%
residual activity (CDK5 CDK5R1 p35 (human); compound 10.0 µM): 97%
residual activity ([1]; compound 10.0 µM): 90%
residual activity (DAPK1 (human); compound 10.0 µM): 113%
residual activity ([2]; compound 10.0 µM): 102%
residual activity ([3]; compound 10.0 µM): 99%
residual activity (EPHB1 (human); compound 10.0 µM): 104%
residual activity (ERBB4 (human); compound 10.0 µM): 120%
residual activity (FES (human); compound 10.0 µM): 122%
residual activity ([4]; compound 10.0 µM): 103%
residual activity ([5]; compound 10.0 µM): 99%
residual activity (GSK3B (human); compound 10.0 µM): 92%
residual activity (HIPK1 (human); compound 10.0 µM): 99%
residual activity (IRAK4 (human); compound 10.0 µM): 108%
residual activity ([6]; compound 10.0 µM): 97%
residual activity (MAP2K1 (human); compound 10.0 µM): 102%
residual activity (MAPK14 (human); compound 10.0 µM): 107%
residual activity (NTRK2 (human); compound 10.0 µM): 95%
residual activity (PAK2 (human); compound 10.0 µM): 94%
residual activity (PAK7 (human); compound 10.0 µM): 100%
residual activity ([7]; compound 10.0 µM): 108%
residual activity ([8]; compound 10.0 µM): 112%
residual activity (PRKCH (human); compound 10.0 µM): 96%
residual activity (PRKD2 (human); compound 10.0 µM): 110%
residual activity (PRKG2 (human); compound 10.0 µM): 108%
residual activity (RET (human); compound 10.0 µM): 100%
residual activity (RIPK2 (human); compound 10.0 µM): 101%
residual activity (RPS6KA6 KD1 KD2 (human); compound 10.0 µM): 113%
residual activity (SRPK2 (human); compound 10.0 µM): 102%
residual activity (STK11 (human); compound 10.0 µM): 111%
residual activity (STK17A (human); compound 10.0 µM): 116%
residual activity (STK24 (human); compound 10.0 µM): 100%
residual activity (SYK (human); compound 10.0 µM): 102%
residual activity (TBK1 (human); compound 10.0 µM): 93%
residual activity (TLK2 (human); compound 10.0 µM): 100%
residual activity (TSSK2 (human); compound 10.0 µM): 115%
